Data on 7 molecules can be found in patent US10815232B2, “Crystalline forms of viral-protein inhibitor drug VX-787, processes for preparation thereof and use thereof” (Crystal Pharmaceutical (Suzhou) Co., Ltd., priority 2017, dated 2020).

The nature of data set [1]: Dynamic solubility in water (Example 11). The format is physicochemical. On the procedure:
12 mg of hydrochloride Form CS3 prepared in the present disclosure and the hydrochloride Form A in CN105849100A were accurately weighed and placed in vials, followed by adding 1.2 mL of water. The samples were rotated at 30 rpm on a rotator and sampled at 1 hour, 4 hours, and 24 hours. After centrifugation with 0.45 urn polytetrafluoroethylene (PTFE) filters, the filtrates were collected for HPLC analysis.

Data set [2] is described as follows: Storage stability of crystalline forms (XRPD, HPLC). The format is physicochemical. Conditions: for purities after storage: all storage conditions tested for the form; for Purity after storage: initial purity 99.24%. As to the method:
The hydrochloride Form CS1 prepared by the present disclosure was stored under 25° C./60% RH and 40° C./75% RH for 1 month. The crystalline forms were checked by XRPD before and after storing.
Three samples of hydrochloride Form CS3 prepared by the present disclosure were stored in open dishes under conditions of 25° C./60% RH, 40° C./75% RH for 1 month, and 60° C./75% relative humidity for 2 weeks. The crystalline forms and the chemical purities were checked by XRPD and HPLC before and after storing.
Three samples of hydrochloride Form CS4 prepared by the present disclosure were stored in open dishes under conditions of 25° C./60% RH for two weeks, 40° C./75% RH for 1 month, and 60° C./75% relative humidity for 2 weeks. The crystalline forms and the chemical purities were checked by XRPD and HPLC respectively before and after storing.
[…] The crystalline forms and chemical purities were checked by HPLC and XRPD before and after storing.

Data set [3] in a line: Dynamic solubility, saturated solution in pure water (Example 17). The format is physicochemical. The note with it: for Solubility: pure water. As to the method: Hydrochloride Form CS4 of the present disclosure and hydrochloride Form A in CN105849100A were prepared into saturated solution in pure water. The content of the sample in the saturated solution was determined by high performance liquid chromatography (HPLC) after 1, 4 and 24 hours. The solubility data of hydrochloride Form CS4 of the present disclosure and hydrochloride Form A in CN105849100A are shown in Table 12.

Data set [4] is described as follows: Dynamic solubility in FaSSIF and FeSSIF (Example 22). Type of data set: physicochemical. As to the method: The crystallite form CS3 of compound I of the present disclosure and free form Form A in CN105849100A are prepared into saturated solutions in pH-5.0 FeSSIF (Fed state simulated intestinal fluids) and pH=6.5 FaSSIF (Fasted state simulated intestinal fluids). The content of the sample in the saturated solution was determined by high performance liquid chromatography (HPLC) after equlibrated for 1, 4 and 24 hours.

A short description of data set [5]: Mechanical stability (grinding, XRPD). Conditions: ground in an agate mortar for about 2 minutes. The format is physicochemical. On the procedure:
About 10 mg of hydrochloride Form CS1 of the present disclosure was taken and ground in an agate mortar for about 2 minutes.

For data set [6] the following is noted: Phase I studies; cited from earlier work.
For data set [7], the system named is influenza virus infection. Conditions: Completed Phase IIa studies; cited from earlier work.
Where [8] appears, read: 25° C./60% RH, Five months, open dish.
[9] abbreviates: 40° C./75% RH, Five months, open dish.

Molecules are shown by their SMILES. Converted amounts (≈) assume the structure as drawn. “Also recorded” adds a separate entry of the source. Structures can show the parent of a compound that is named as a salt.

On to `O=C(O)[C@H]1C2CCC(CC2)[C@@H]1Nc1nc(-c2c[nH]c3ncc(F)cc23)ncc1F` [Hydrochloride Form CS3], for which the results for the Solubility in data set [1] (1 hour), in data set [1] (4 hours) and in data set [1] (24 hours) were 0.0025 mg/mL, 0.046 mg/mL and 0.015 mg/mL, respectively. In data set [1] (after 1, 4 and 24 hours), the “solubility, times higher than hydrochloride Form A in CN105849100A” value is on record as 6-51 times. The “Change of crystalline form” value in data set [2] (25° C./60% RH, Seven months, open dish) is “Unchanged”; in data set [2] (60° C./75% RH, Two weeks, open dish), “Unchanged”. Moreover, the “time for which the form is stable” value is “at least 7 months” in data set [2] (25° C./60% RH, listed as hydrochloride Form CS3); “at least 1 month” in data set [2] (40° C./75% RH, listed as hydrochloride Form CS3); “at least 2 weeks” in data set [2] (60° C./75% RH). Besides, the purities after storage result in data set [2] is recorded as “above 98%”.

Turning to `O=C(O)[C@H]1C2CCC(CC2)[C@@H]1Nc1nc(-c2c[nH]c3ncc(F)cc23)ncc1F` [Hydrochloride Form CS4], the figures for the Solubility in data set [3] (1 hour), in data set [3] (4 hours) and in data set [3] (24 hours) were 0.085 mg/mL, 0.075 mg/mL and 0.094 mg/mL, respectively. Also, the “solubility, times higher than hydrochloride Form A of CN105849100A” value in data set [3] (water, after 1, 4 and 24 hours) is 38-283 times. The “Change of crystalline form” value in data set [2] (25° C./60% RH, Two weeks, open dish) is recorded as “Unchanged”. For the same molecule, the “time for which the form is stable” value in data set [2] (25° C./60% RH, listed as hydrochloride Form CS4) is given as “at least 2 weeks”; in data set [2] (40° C./75% RH, listed as hydrochloride Form CS4), “at least 1 month”. Besides, the purities after storage entry in data set [2] is given as “above 98%”.

For the molecule `O=C(O)[C@H]1C2CCC(CC2)[C@@H]1Nc1nc(-c2c[nH]c3ncc(F)cc23)ncc1F` [Form CS3 of Compound I], the “Solubility FaSSIF” value in data set [4] (FaSSIF pH=6.5, 1 hour) stood at 0.11 mg/mL (≈ 275 µM); in data set [4] (FaSSIF pH=6.5, 4 hours) it was 0.21 mg/mL (≈ 526 µM); in data set [4] (FaSSIF pH=6.5, 24 hours), 0.2 mg/mL (≈ 501 µM). Also, the “solubility, times higher than Form A in CN105849100A” value was 6-16 times in data set [4] (FaSSIF, 1, 4 and 24 hours); 4-11 times in data set [4] (FeSSIF, 1, 4 and 24 hours). Moreover, the “Solubility FeSSIF” value is 0.21 mg/mL (≈ 526 µM) in data set [4] (FeSSIF pH 5.0, 1 hour); 0.29 mg/mL (≈ 726 µM) in data set [4] (FeSSIF pH 5.0, 4 hours); 0.25 mg/mL (≈ 626 µM) in data set [4] (FeSSIF pH 5.0, 24 hours). The “Change of crystalline form” value in data set [2] (setting [8]) and in data set [2] (setting [9]) was “Five months Unchanged” each time. Besides, the Purity after storage came to 99.28% in data set [2] (setting [8]) and 99.26% in data set [2] (setting [9]). Besides, the “time for which the form is stable” value in data set [2] (25° C./60% RH, listed as Crystalline form CS3 of compound I) is “at least 5 months”; in data set [2] (25° C./60% RH, listed as crystalline form CS3 of compound I), “at least 5 months”; in data set [2] (40° C./75% RH, listed as Crystalline form CS3 of compound I), “at least 5 month”; in data set [2] (40° C./75% RH, listed as crystalline form CS3 of compound I), “at least 5 month”.

As to `O=C(O)[C@H]1C2CCC(CC2)[C@@H]1Nc1nc(-c2c[nH]c3ncc(F)cc23)ncc1F` [Hydrochloride Form CS1], the “time for which the form is stable” value in data set [2] (25° C./60% RH) is listed as “at least 1 months”; in data set [2] (25° C./60% RH, listed as hydrochloride Form CS1), “at least 1 months”; in data set [2] (40° C./75% RH) it was “at least 1 month”; in data set [2] (40° C./75% RH, listed as hydrochloride Form CS1), “at least 1 month”. The “Change of crystalline form” value in data set [2] (25° C./60% RH, One month) was “Unchanged”; in data set [2] (40° C./75% RH, One month), “Unchanged”. Besides, the purities after storage result in data set [2] was “above 98%”. For the same molecule, the “crystalline form change after grinding” value in data set [5] is listed as “no form change is observed; also recorded: No crystalline form change”.

In the case of `O=C(O)[C@H]1C2CCC(CC2)[C@@H]1Nc1nc(-c2c[nH]c3ncc(F)cc23)ncc1F` [Free Form Form A in CN105849100A, reference compound], the “Solubility FaSSIF” value is 0.007 mg/mL (≈ 17.5 µM) in data set [4] (FaSSIF pH=6.5, 1 hour); 0.013 mg/mL (≈ 32.5 µM) in data set [4] (FaSSIF pH=6.5, 4 hours); 0.031 mg/mL (≈ 77.6 µM) in data set [4] (FaSSIF pH=6.5, 24 hours). Also, the “Solubility FeSSIF” value in data set [4] (FeSSIF pH 5.0, 1 hour) was 0.018 mg/mL (≈ 45.1 µM); in data set [4] (FeSSIF pH 5.0, 4 hours) it was 0.03 mg/mL (≈ 75.1 µM); in data set [4] (FeSSIF pH 5.0, 24 hours), 0.057 mg/mL (≈ 143 µM).

As to `O=C(O)[C@H]1C2CCC(CC2)[C@@H]1Nc1nc(-c2c[nH]c3ncc(F)cc23)ncc1F` [Hydrochloride Form A in CN105849100A, reference compound], the Solubility (commonly the dissolved amount per volume that the medium holds) was found to be 0.0003 mg/mL in data set [1] (1 hour); 0.0009 mg/mL in data set [1] (4 hours); 0.0025 mg/mL in data set [1] (24 hours); 0.0003 mg/mL in data set [3] (1 hour); 0.0009 mg/mL in data set [3] (4 hours); 0.0025 mg/mL in data set [3] (24 hours).

On to `O=C(O)[C@H]1C2CCC(CC2)[C@@H]1Nc1nc(-c2c[nH]c3ncc(F)cc23)ncc1F` [VX-787, (2S,3S)-3-((5-Huoro-2-(5-fluoro-1.171-pyrrolo[2,3-b]pyridin-3-yl)pyrimidin-4-yl)amino) bicyclo[2.2.2]octane-2-carboxylic acid], for which, in data set [6], the tolerance result is on record as “good tolerance”. Besides, the “virological and clinical evaluation of influenza virus infection” value in data set [7] is listed as “statistical significance”.
